Results from PubChem BioAssay AID588471 (The Scripps Research Institute Molecular Screening Center, 2011).

Legend:
Assay in all cases: PubChem AID 588471
[1] = biological target: Protein-arginine deiminase type-1 (Homo sapiens) (UniProt Q9ULC6); conditions: recombinant PAD1-4, BAEE citrulline colorimetric absorbance; PAD1
[2] = biological target: Protein-arginine deiminase type-2 (Homo sapiens) (UniProt Q9Y2J8); conditions: recombinant PAD1-4, BAEE citrulline colorimetric absorbance; PAD2
[3] = biological target: Protein-arginine deiminase type-3 (Homo sapiens) (UniProt Q9ULW8); conditions: recombinant PAD1-4, BAEE citrulline colorimetric absorbance; PAD3
[4] = biological target: Protein-arginine deiminase type-4 (Homo sapiens) (UniProt Q9UM07); conditions: recombinant PAD1-4, BAEE citrulline colorimetric absorbance; PAD4
Sequence of Protein-arginine deiminase type-4 (Homo sapiens) (Q9UM07 whole entry, looked up): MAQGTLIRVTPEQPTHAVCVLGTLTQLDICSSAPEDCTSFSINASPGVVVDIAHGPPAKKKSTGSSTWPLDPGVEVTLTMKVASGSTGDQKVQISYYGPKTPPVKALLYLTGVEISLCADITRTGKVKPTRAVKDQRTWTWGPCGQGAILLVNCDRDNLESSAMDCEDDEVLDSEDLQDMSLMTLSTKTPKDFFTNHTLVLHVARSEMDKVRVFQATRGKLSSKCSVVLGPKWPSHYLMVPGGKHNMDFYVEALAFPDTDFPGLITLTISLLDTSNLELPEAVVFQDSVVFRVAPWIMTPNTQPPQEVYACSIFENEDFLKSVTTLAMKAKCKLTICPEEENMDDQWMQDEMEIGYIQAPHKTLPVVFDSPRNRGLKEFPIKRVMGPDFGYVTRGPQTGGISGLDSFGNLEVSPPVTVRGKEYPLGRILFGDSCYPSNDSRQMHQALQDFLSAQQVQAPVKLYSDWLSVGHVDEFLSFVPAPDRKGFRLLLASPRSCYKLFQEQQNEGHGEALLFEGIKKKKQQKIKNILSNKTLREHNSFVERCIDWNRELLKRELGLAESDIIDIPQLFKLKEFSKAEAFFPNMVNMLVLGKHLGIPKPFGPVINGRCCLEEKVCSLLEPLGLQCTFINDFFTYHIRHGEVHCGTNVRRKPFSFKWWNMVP

Sequence of Protein-arginine deiminase type-1 (Homo sapiens) (Q9ULC6 whole entry, looked up): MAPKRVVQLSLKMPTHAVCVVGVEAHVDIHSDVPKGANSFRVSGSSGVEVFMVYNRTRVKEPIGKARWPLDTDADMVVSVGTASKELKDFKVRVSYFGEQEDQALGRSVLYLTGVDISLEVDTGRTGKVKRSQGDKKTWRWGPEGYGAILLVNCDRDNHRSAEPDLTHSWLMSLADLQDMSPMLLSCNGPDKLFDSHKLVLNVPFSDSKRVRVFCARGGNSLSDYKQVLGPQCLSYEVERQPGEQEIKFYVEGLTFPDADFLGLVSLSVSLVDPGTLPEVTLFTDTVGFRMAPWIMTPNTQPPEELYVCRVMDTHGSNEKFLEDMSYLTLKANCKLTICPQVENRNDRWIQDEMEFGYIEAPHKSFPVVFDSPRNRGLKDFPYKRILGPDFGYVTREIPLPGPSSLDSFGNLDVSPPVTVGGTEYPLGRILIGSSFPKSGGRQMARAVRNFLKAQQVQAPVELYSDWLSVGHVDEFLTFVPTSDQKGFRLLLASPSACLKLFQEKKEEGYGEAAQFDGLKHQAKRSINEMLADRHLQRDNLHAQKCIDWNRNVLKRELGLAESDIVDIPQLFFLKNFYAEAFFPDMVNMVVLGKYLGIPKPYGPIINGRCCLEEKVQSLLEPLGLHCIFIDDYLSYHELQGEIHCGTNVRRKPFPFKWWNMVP
Sequence of Protein-arginine deiminase type-3 (Homo sapiens) (Q9ULW8 whole entry, looked up): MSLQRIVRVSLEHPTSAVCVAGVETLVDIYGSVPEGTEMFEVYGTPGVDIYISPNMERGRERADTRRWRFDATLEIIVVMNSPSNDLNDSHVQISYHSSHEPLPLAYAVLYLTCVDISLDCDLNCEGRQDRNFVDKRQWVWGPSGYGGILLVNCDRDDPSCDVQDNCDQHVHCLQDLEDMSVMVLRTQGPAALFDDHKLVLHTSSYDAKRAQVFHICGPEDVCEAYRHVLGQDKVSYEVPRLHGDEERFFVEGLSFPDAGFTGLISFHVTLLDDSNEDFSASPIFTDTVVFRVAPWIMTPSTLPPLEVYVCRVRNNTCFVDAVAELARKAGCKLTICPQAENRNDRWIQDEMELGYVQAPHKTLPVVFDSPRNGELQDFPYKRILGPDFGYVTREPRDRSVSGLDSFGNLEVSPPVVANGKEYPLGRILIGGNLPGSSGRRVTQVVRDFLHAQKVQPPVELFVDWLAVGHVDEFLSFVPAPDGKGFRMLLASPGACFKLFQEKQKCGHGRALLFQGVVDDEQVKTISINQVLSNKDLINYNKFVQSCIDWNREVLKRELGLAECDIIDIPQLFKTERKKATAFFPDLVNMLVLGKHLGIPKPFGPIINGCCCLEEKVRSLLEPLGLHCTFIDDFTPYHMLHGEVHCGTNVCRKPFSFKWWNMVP
Sequence of Protein-arginine deiminase type-2 (Homo sapiens) (Q9Y2J8 whole entry, looked up): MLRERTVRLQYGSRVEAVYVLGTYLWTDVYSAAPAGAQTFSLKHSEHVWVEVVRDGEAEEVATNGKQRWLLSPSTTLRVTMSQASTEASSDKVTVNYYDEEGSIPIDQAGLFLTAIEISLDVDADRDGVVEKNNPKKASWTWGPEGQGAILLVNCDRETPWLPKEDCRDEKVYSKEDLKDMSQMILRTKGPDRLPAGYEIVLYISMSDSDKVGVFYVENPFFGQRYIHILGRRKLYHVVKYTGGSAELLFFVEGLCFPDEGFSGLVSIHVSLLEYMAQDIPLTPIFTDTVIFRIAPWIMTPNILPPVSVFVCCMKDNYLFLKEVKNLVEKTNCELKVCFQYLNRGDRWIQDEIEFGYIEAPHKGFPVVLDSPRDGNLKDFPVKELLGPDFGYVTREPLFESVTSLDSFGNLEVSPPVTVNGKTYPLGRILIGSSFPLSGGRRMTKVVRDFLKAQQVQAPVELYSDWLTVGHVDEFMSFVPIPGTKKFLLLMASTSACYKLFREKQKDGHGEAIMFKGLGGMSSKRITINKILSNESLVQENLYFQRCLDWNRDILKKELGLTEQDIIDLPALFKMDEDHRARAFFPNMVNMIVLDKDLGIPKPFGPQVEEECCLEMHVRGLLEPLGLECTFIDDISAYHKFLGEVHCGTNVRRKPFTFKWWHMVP

IC50 [1]: 0.95 µM | IC50 [2]: 0.32 µM | IC50 [3]: 0.13 µM | IC50 [4]: 0.64 µM
SMILES: NC1=CC(=O)c2ccc(-c3ccccn3)nc2C1=O
